Results published in patent US12617779B2, “Self degradation-type CDK9 inhibitor prodrug and liposome encapsulating same” (Sumitomo Pharma Co., Ltd., priority 2021, dated 2026).

Experiment: Evaluation of conversion rate to active form in buffer solution (Experimental Example 1)
Type: physicochemical
Method: For Examples 1 to 16 and Comparative Examples 1 to 14, the attrition rate of the test compound and the conversion rate of the test compound to Alvocidib in a buffer solution were calculated by the following method.
Examples 1 to 16 and Comparative Examples 1 to 14 were each left in buffer solutions adjusted to pH 5.0, 5.5, 6.0, 6.5, 7.0 and 7.4, respectively, at a concentration of 25 umol/L at 37° C. After 0, 0.5, 1, 2 and 3 hours, the residual rates of the compounds of Examples […] and the production rate of Alvocidib were determined by HPLC.
The buffer solutions used at each pH are as follows. • pH 5.0: 50 mM citrate buffer solution (pH 5.0) • pH 5.5: 50 mM citrate buffer solution (pH 5.5) • pH 6.0: 50 mM phosphate buffer solution (pH 6.0) • pH 6.5: 50 mM phosphate buffer solution (pH 6.5) • pH 7.0: 50 mM phosphate buffer solution (pH 7.0) • pH 7.4: 50 mM phosphate buffer solution (pH 7.4)
The measurement conditions for HPLC are as follows.

- Production rate of Alvocidib (pH5.0, 0 hr): 0.0%
- Residual rate (pH5.0, 0 hr): 93.9%
- Production rate of Alvocidib (pH5.0, 0.5 hr): 0.0%
- Residual rate (pH5.0, 0.5 hr): 93.5%
- Production rate of Alvocidib (pH5.0, 1 hr): 0.0%
- Residual rate (pH5.0, 1 hr): 93.4%
- Production rate of Alvocidib (pH5.0, 2 hr): 0.0%
- Residual rate (pH5.0, 2 hr): 93.9%
- Production rate of Alvocidib (pH5.0, 3 hr): 0.0%
- Residual rate (pH5.0, 3 hr): 93.9%
- Production rate of Alvocidib (pH5.5, 0 hr): 0.0%
- Residual rate (pH5.5, 0 hr): 93.9%
- Production rate of Alvocidib (pH5.5, 0.5 hr): 0.0%
- Residual rate (pH5.5, 0.5 hr): 93.8%
- Production rate of Alvocidib (pH5.5, 1 hr): 0.0%
- Residual rate (pH5.5, 1 hr): 93.8%
- Production rate of Alvocidib (pH5.5, 2 hr): 0.0%
- Residual rate (pH5.5, 2 hr): 94.0%
- Production rate of Alvocidib (pH5.5, 3 hr): 0.0%
- Residual rate (pH5.5, 3 hr): 93.6%
- Production rate of Alvocidib (pH6.0, 0 hr): 0.0%
- Residual rate (pH6.0, 0 hr): 93.5%
- Production rate of Alvocidib (pH6.0, 0.5 hr): 0.0%
- Residual rate (pH6.0, 0.5 hr): 94.0%
- Production rate of Alvocidib (pH6.0, 1 hr): 0.0%
- Residual rate (pH6.0, 1 hr): 93.5%
- Production rate of Alvocidib (pH6.0, 2 hr): 0.0%
- Residual rate (pH6.0, 2 hr): 93.9%
- Production rate of Alvocidib (pH6.0, 3 hr): 0.0%
- Residual rate (pH6.0, 3 hr): 94.0%
- Production rate of Alvocidib (pH6.5, 0 hr): 0.0%
- Residual rate (pH6.5, 0 hr): 93.5%
- Production rate of Alvocidib (pH6.5, 0.5 hr): 0.0%
- Residual rate (pH6.5, 0.5 hr): 93.9%
- Production rate of Alvocidib (pH6.5, 1 hr): 0.0%
- Residual rate (pH6.5, 1 hr): 93.6%
- Production rate of Alvocidib (pH6.5, 2 hr): 0.0%
- Residual rate (pH6.5, 2 hr): 93.5%
- Production rate of Alvocidib (pH6.5, 3 hr): 0.0%
- Residual rate (pH6.5, 3 hr): 93.5%
- Production rate of Alvocidib (pH7.0, 0 hr): 0.0%
- Residual rate (pH7.0, 0 hr): 93.9%
- Production rate of Alvocidib (pH7.0, 0.5 hr): 0.0%
- Residual rate (pH7.0, 0.5 hr): 93.4%
- Production rate of Alvocidib (pH7.0, 1 hr): 0.0%
- Residual rate (pH7.0, 1 hr): 93.8%
- Production rate of Alvocidib (pH7.0, 2 hr): 0.0%
- Residual rate (pH7.0, 2 hr): 93.9%
- Production rate of Alvocidib (pH7.0, 3 hr): 0.0%
- Residual rate (pH7.0, 3 hr): 93.3%
- Production rate of Alvocidib (pH7.4, 0 hr): 0.0%
- Residual rate (pH7.4, 0 hr): 93.3%
- Conversion to Alvocidib at pH 7.4 (pH 7.4, 37° C., up to 3 hours): slowly converted to Alvocidib
- Production rate of Alvocidib (pH7.4, 0.5 hr): 0.0%
- Residual rate (pH7.4, 0.5 hr): 93.9%
- Production rate of Alvocidib (pH7.4, 1 hr): 0.0%
- Residual rate (pH7.4, 1 hr): 93.9%
- Production rate of Alvocidib (pH7.4, 2 hr): 0.0%
- Residual rate (pH7.4, 2 hr): 93.4%
- Production rate of Alvocidib (pH7.4, 3 hr): 0.0%
- Residual rate (pH7.4, 3 hr): 93.4%
SMILES: CNC(=O)O[C@@H]1CN(C)CC[C@@H]1c1c(O)cc(O)c2c(=O)cc(-c3ccccc3Cl)oc12 [Comparative Example 5, reference compound]
